Laboratory results as given in ChEMBL document CHEMBL4411268, “Phytosterol and γ-Oryzanol Conjugates: Synthesis and Evaluation of their Antioxidant, Antiproliferative, and Anticholesterol Activities” (2018).

How the values were obtained:
MDA-MB-231 = assay: Antiproliferative activity against human MDA-MB-231 cells assessed as growth inhibition after 72 hrs by MTT assay; type: functional; conditions: MDA-MB-231, 72 h
HeLa = assay: Antiproliferative activity against human HeLa cells assessed as growth inhibition after 72 hrs by MTT assay; type: functional
[1] = Antioxidant activity against linoleic acid assessed as inhibition of beta-carotene bleaching at 0.18 umol/ml measured at 15 mins interval for 1 hr; type: functional
[2] = Metal chelating activity assessed as compound-Fe2+ complex formation by measuring chelated ferrous ion at 0.18 umol/ml preincubated with Mohr's salt followed by ferozine addition and measured after 10 mins
[3] = Antioxidant activity assessed as DPPH radical scavenging activity at 0.18 umol/ml incubated for 30 mins under dark condition relative to control; type: functional
Daoy = assay: Antiproliferative activity against human DaOY cells assessed as growth inhibition after 72 hrs by MTT assay; type: functional

| Structure (SMILES) | GI50 (MDA-MB-231) | GI50 (HeLa) | inhibition [1] | Activity [2] | inhibition [3] | GI50 (Daoy) |
| --- | --- | --- | --- | --- | --- | --- |
| C=C(CC[C@@H](C)[C@H]1CC[C@@]2(C)[C@@H]3CC[C@H]4C(C)(C)[C@@H](OC(=O)[C@H](CSSC[C@H](NC(=O)OC(C)(C)C)C(=O)O[C@H]5CC[C@]67C[C@@]68CC[C@]6(C)[C@@H]([C@H](C)CCC(=C)C(C)C)CC[C@@]6(C)[C@@H]8CC[C@H]7C5(C)C)NC(=O)OC(C)(C)C)CC[C@@]45C[C@]35CC[C@]12C)C(C)C | > 10 µM | > 10 µM | 5% | 0% | 0% | > 10 µM |
| O=c1c(O)c(-c2ccc(O)c(O)c2)oc2cc(O)cc(O)c12 | – | – | – | 22% | – | – |
| COc1cccc2c1C(=O)c1c(O)c3c(c(O)c1C2=O)C[C@@](O)(C(=O)CO)C[C@@H]3O[C@H]1C[C@H](N)[C@H](O)[C@H](C)O1 [DOXORUBICIN] | 0.046 µM | 0.093 µM | – | – | – | 0.016 µM |
